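1) Cells in 96-well plates. 2) Compound, 48 h, 5 concentrations. 3) Linear interpolation between surrounding doses. 4) Unreached endpoint = highest concentration. At the TGI there is no net growth.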

The results in this text go back to PubChem BioAssay (NCI).

Test systems include A498 renal; BT-549 breast; COLO 205 colon; HCT-15 colon; HOP-92 NSCLC; HS 578T breast; HT29 colon; IGROV1 ovarian; MOLT-4 leukemia; NCI-H23 lung; OVCAR-4 ovarian; SK-MEL-5 melanoma; SK-OV-3 ovarian; SN12C renal; SR leukemia; UACC-257 melanoma; UACC-62 melanoma; SK-MEL-2 melanoma; RPMI-8226 leukemia.
Holding throughout (experiment): NCI-60 cell line screen, 48 h

On to `CNC(=O)OCCN1c2ccccc2Sc2ccccc21`, for which the TGI with A498 renal, in the test with BT-549 breast, in the test with COLO 205 colon, in the test on HCT-15 colon, in the test on HOP-92 NSCLC and in the test on HS 578T breast was > 100 µM each time. The TGI in the test with HT29 colon, in the test on IGROV1 ovarian, in the test on MOLT-4 leukemia, in the test with NCI-H23 lung, with OVCAR-4 ovarian and with SK-MEL-5 melanoma was > 100 µM throughout. For the same compound, the TGI in the test on SK-OV-3 ovarian, in the test with SN12C renal, in the test with SR leukemia, with UACC-257 melanoma and in the test on UACC-62 melanoma was > 100 µM each time.

As for `COc1ccc(Nc2nc3ccccc3nc2C(=O)O)cc1`, the TGI was > 100 µM in the test with A498 renal; > 100 µM with BT-549 breast; > 100 µM in the test with COLO 205 colon; > 100 µM with HCT-15 colon; > 100 µM in the test with HOP-92 NSCLC; 85.9 µM with HS 578T breast. The TGI with HT29 colon, in the test on IGROV1 ovarian, with MOLT-4 leukemia, in the test with NCI-H23 lung, with OVCAR-4 ovarian and in the test with SK-MEL-2 melanoma was > 100 µM throughout. Further, the TGI in the test with SK-MEL-5 melanoma, in the test with SK-OV-3 ovarian, with SN12C renal, in the test on SR leukemia, in the test on UACC-257 melanoma and in the test on UACC-62 melanoma was > 100 µM throughout.

For the compound `NCCc1ccc2c(c1)C(=O)c1c(O)ccc(O)c1C2=O`, the TGI in the test on A498 renal, in the test with BT-549 breast, in the test on COLO 205 colon, in the test with HCT-15 colon, with HOP-92 NSCLC and in the test on HS 578T breast was > 100 µM in each case. Further, the TGI with IGROV1 ovarian was > 100 µM; in the test on MOLT-4 leukemia, > 100 µM; with NCI-H23 lung, > 60.8 µM; in the test on OVCAR-4 ovarian, > 100 µM; in the test with RPMI-8226 leukemia, > 100 µM; with SK-MEL-2 melanoma, > 100 µM. Moreover, the TGI with SK-MEL-5 melanoma was 3.94 µM; with SK-OV-3 ovarian, 22.2 µM; in the test on SR leukemia, > 100 µM; in the test with UACC-257 melanoma it was > 100 µM; with UACC-62 melanoma, 39.7 µM.

For `O=C(Nc1ccc(F)cc1)c1cc2ccc(O)cc2oc1=Nc1ccccc1F`, the TGI in the test with A498 renal is > 100 µM; with BT-549 breast, 43.5 µM; in the test with COLO 205 colon, > 100 µM; with HCT-15 colon it was 59 µM; with HS 578T breast, > 100 µM; in the test on HT29 colon it was > 100 µM. Besides, the TGI in the test on IGROV1 ovarian is 36.1 µM; in the test on MOLT-4 leukemia it was > 100 µM; with NCI-H23 lung, 13.6 µM; with OVCAR-4 ovarian it was > 100 µM; with RPMI-8226 leukemia it was > 100 µM; in the test on SK-MEL-2 melanoma, > 100 µM. Moreover, the TGI in the test with SK-MEL-5 melanoma was 35.2 µM; in the test on SK-OV-3 ovarian, 67.1 µM; with SN12C renal, > 100 µM; with SR leukemia, > 100 µM; in the test on UACC-257 melanoma it was > 100 µM; in the test with UACC-62 melanoma, > 100 µM.

For `O=C(NNC(=O)c1ccccc1Cl)c1ccccc1O`, the TGI with A498 renal, with BT-549 breast, in the test with COLO 205 colon, in the test on HCT-15 colon, in the test on HS 578T breast and in the test with HT29 colon was > 100 µM in each case. The TGI in the test on IGROV1 ovarian, in the test on MOLT-4 leukemia, in the test with OVCAR-4 ovarian, with RPMI-8226 leukemia, with SK-MEL-2 melanoma and with SK-MEL-5 melanoma was > 100 µM throughout. Besides, the TGI in the test with SK-OV-3 ovarian, in the test with SN12C renal, in the test with SR leukemia, in the test on UACC-257 melanoma and in the test with UACC-62 melanoma was > 100 µM in each case.

Regarding `CCOC(=O)c1c(N2CCOCC2)[nH]c(=O)c(C(c2ccc(Cl)c([N+](=O)[O-])c2)c2c(O)c(C(=O)OCC)c(N3CCOCC3)[nH]c2=O)c1O`, the TGI in the test with A498 renal is > 100 µM; with BT-549 breast it was 75.1 µM; in the test with COLO 205 colon it was > 100 µM; in the test with HCT-15 colon, > 100 µM; in the test on HOP-92 NSCLC it was 69.4 µM; with HS 578T breast, > 100 µM. Further, the TGI with HT29 colon is 42.1 µM; in the test on MOLT-4 leukemia, 57.8 µM; in the test on NCI-H23 lung, 98.8 µM; with OVCAR-4 ovarian it was > 100 µM; in the test with RPMI-8226 leukemia, > 100 µM; in the test with SK-MEL-5 melanoma it was 74.5 µM. For the same compound, the TGI with SK-OV-3 ovarian is > 100 µM; with SN12C renal it was 51 µM; with SR leukemia it was > 100 µM; with UACC-257 melanoma, > 100 µM; with UACC-62 melanoma it was > 100 µM.

As to `CCOC(=O)C(Cc1cn(S(=O)(=O)c2ccc(C)cc2)cn1)P(=O)(OCC)OCC` (centres undefined), the TGI with BT-549 breast, in the test with COLO 205 colon, with HCT-15 colon, with HS 578T breast, in the test on HT29 colon and with IGROV1 ovarian was > 100 µM in each case. Also, the TGI in the test on MOLT-4 leukemia, in the test with NCI-H23 lung, in the test on OVCAR-4 ovarian, in the test with RPMI-8226 leukemia, in the test with SK-MEL-2 melanoma and in the test with SK-MEL-5 melanoma was > 100 µM throughout. Moreover, the TGI in the test with SK-OV-3 ovarian, in the test with SN12C renal, in the test on SR leukemia, with UACC-257 melanoma and with UACC-62 melanoma was > 100 µM each time.

Consider `N#CC(c1ccccc1)(c1ccccc1)[C@@H](c1ccccc1)[C@H](Cc1ccccc1)NS(=O)(=O)c1ccccc1`, for which the TGI in the test with A498 renal, in the test with BT-549 breast, in the test with COLO 205 colon, with HCT-15 colon, in the test with HS 578T breast and in the test with HT29 colon was > 100 µM throughout. The TGI in the test with IGROV1 ovarian, in the test on MOLT-4 leukemia, with NCI-H23 lung, in the test on OVCAR-4 ovarian, in the test on RPMI-8226 leukemia and with SK-MEL-2 melanoma was > 100 µM throughout. The TGI with SK-MEL-5 melanoma, in the test with SK-OV-3 ovarian, in the test with SN12C renal, with SR leukemia, in the test on UACC-257 melanoma and with UACC-62 melanoma was > 100 µM in each case.
